The results in this text go back to PMC6733959, “Synthesis and Evaluations of Novel Apocynin Derivatives as Anti-Glioma Agents” (Frontiers in Pharmacology, 2019).

For one data set, the system named is ROS levels in U87 cells. As to the kind of experiment: Intracellular ROS levels (DCF, flow cytometry), U87 cells. Conditions: 20 and 50 μM, 48 h, P < 0.05. The format is cell-based, human. The procedure: Intracellular reactive oxygen species (ROS) levels were detected using Reactive Oxygen Species Assay Kit (Jiancheng Bioengineering, Nanjing, China) as per the manufacturer’s instruction. Brieﬂy, after treatment with indicated concentrations of test compound (20, 50 μM) for 48 h, the cells were incubated in 1 ml 2,7-dichloroﬂuorescin diacetate working solution (100 μM) for 30 min at 37°C in the dark, and washed with PBS. Then ﬂuorescence intensities of intracellular DCF were detected using a FACS Calibur ﬂow cytometer (Becton-Dickinson, San Jose, CA, USA). H2O2 treatment group was used as the positive control group.
(In flow cytometry, cells or beads pass a laser one at a time.)

A further data set deals with C6 glioma. As to the kind of experiment: Rat C6 glioma model. It is filed as in vivo. The note with it: C6 glioma-bearing Wistar rats, 25 mg/kg i.p. daily. As for the experimental part: C6 glioma model was established as previously reported ([Xu etal., 2016]). The C6 glioma cells in the logarithmic growth phase were collected for implantation. Male Wistar rats (male, 160–180g) were anesthetized with 10% chloral hydrate, and then a hole (1 mm diameter) was drilled in the cranial bone. C6 cells in PBS were injected slowly (3 × 10^6 cells/rat).
Tumors in the brains of the rats were detected by Bruker 7.0 T Micro-MRI using a T2W RARE sequence (TR/TE 3000/15 ms; slice thickness, 1.0 mm; flip angle, 180°; Matrix 256×256; slice gap, 1.0 mm; FOV, 33×33 mm; time, 4.8 min) 7 days after implantation. Tumor volumes (V) were calculated by the following formula: V = (4/3 × π × LHW)/8, where L is the maximum anteroposterior diameter, H and W are the height and width. Then the rats were sacrificed, and the brain tissues were fixed with formalin, embedded in paraffin, sectioned, and subjected to hematoxylin/eosin (HE) staining and immunohistochemical staining for glial fibrillary acidic protein (GFAP) as previously described ([Xu et al., 2016]). The sections from each animal were analyzed by a pathologist. Only rats with maximum intracerebral tumor diameter of >5.0 mm were used.
After the successful implantation, the rats were randomly divided into […] and treated with different drugs by intraperitoneal injection daily: control group (PBS, n = 6), TMZ group (25 mg/kg, n = 6), D14 group (25 mg/kg, n = 6), and D31 group (25 mg/kg, n = 6). The body weights were recorded everyday after administration. Thirteen days after treatment, brain tumors in the rats were detected by Bruker 7.0 T Micro-MRI as described above. Tumor volumes were calculated and recorded as above.

Data set [1] is described as follows: Transport experiment in the in vitro BBB cell model. The format is in vitro ADME. The note with it: Sprague-Dawley, rat, C0 20 μM, apical to basolateral, mean ± SD (n = 3-4), read-out: Papp × 10^−6. The procedure: (§1) Rat brain microvascular endothelial cells (BMECs) were separated from the cerebral cortex of 18-day-old male Sprague-Dawley rats as described previously ([Biegel et al., 1995]). Briefly, the cerebral cortical tissues were dissected from meninges after the rats were sacrificed, then the tissues were homogenated in physiological buffer solution (pH 7.4). After centrifugation, the pellets were collected, and the microvascular segments were then digested with 0.1% collagenase II at 37°C for 1 h. […] The second passage was used for co-culture of BBB cellular models.
Astrocytes were separated from the cerebral cortex of newborn Sprague-Dawley rats (1–2 days) as described previously ([Jeliazkova-Mecheva and Bobilya, 2003]). The brain tissues (removal of the meninges and blood vessel) were minced and mechanical homogenized and then digested with 0.25% trypsin-EDTA at 37°C for 10 min.
The in vitro BBB cell model was constructed in the Transwell 24well plate ([…], Millipore, USA). Before the experiment, the transwell filters were coated with matrigel matrix. The isolated rat astroglias were seeded onto one side of polycarbonate inserts (5 × 10^4 cells/insert). After 3 to 5 days, the rat BMECs were seeded at a density of 1.5 × 10^5 cells/insert onto the opposite side of the inserts to produce rat BMEC monolayers. The in vitro BBB cell model was formed 3 to 4 days. Trans-epithelial electrical resistance (TEER) measurements were performed everyday after the co-cultures formed until the TEER value increased to […] ([Yang et al., 2014]) ( Figure 2C ).
The transport experiments were performed by adding 400 μl HBSS containing the compounds to the apical side (AP), with 600μl HBSS to the basolateral side (BL) at the same time. Samples (60 μl) were collected from the BL chamber at the time points of 15, 30, 60, 90, 120, and 180 min, and the corresponding volume of HBSS buffer was immediately added into the BL chamber. The samples were precipitated by methanol, and the concentrations of the compounds in the samples were determined by high-performance liquid chromatography (HPLC). The HPLC conditions were as follows: Agilent TC-C18 column (250 × 4.6 mm; 5 μm), methanol 1% ethanoic acid mobile phase (from 10:90 to 90:10, v/v), with gradient elution at a flow rate of 1.0 ml/min. The detection wavelength was 275 nm for these compounds. The run time was 20 min. The apparent permeability coefficients (P app) were calculated from the following formula: P app = (∆Q/∆t)/(A × C 0), where ∆Q/∆t is the linear appearance rate of the compound on the BL side (μmol/s), A is the surface area of the cell monolayer (cm^2), and C 0 is the initial concentration of the drug on the AP side (μmol/L).

Another data set concerns BMECs. As to the kind of experiment: MTT assay on normal BMECs (48 and 96 h). Conditions: Rattus norvegicus. The format is cell-based. As for the experimental part:
as §1
The anti-glioma effects of these compounds were evaluated by MTT assay in rat C6 glioma cells, human glioma U87 and U251 cells, and BMECs cells. Brieﬂy, cells were seeded at the density of 4,000 cells/well in 96-well plates overnight. For the first screening, the cells were incubated with 10, 20, 100 μM compounds for 48 h. Then cell viabilities were detected by MTT assay as described above. For the second screening, the cells were incubated with 6.25-, 12.5-, 25-, 50-, and 100μM compounds for 48 and 96 h, and then detected by MTT assay. The OD of each well was measured at 490 nm on an ELISA microplate reader. The inhibitory rates and IC50 values were calculated.
Background: Formazan colour is commonly taken as a measure of viable cells.

Data set [2] deals with NF-κB pathway-related proteins. As to the kind of experiment: Western blot of NF-κB pathway-related proteins, C6 cells. It is filed as cell-based, rat. The note with it: 20 and 50 μM, 48 h. As for the experimental part: Briefly, after treatment with indicated concentrations of test compound (20, 50 μM) for 48 h, the cells were collected, and total cell lysates and nucleus fractions were extracted. Twenty micrograms of cellular protein were subjected to electrophoresis on 12% SDS-polyacrylamide gels and then transferred to polyvinylidene difluoride membranes. The membranes were first incubated with 5% BSA for 2 h at 37°C and then incubated with the first antibodies overnight at 4°C. After HRP-labeled secondary antibodies (1:1,000-dilution) incubation, protein bands were visualized with the enhanced chemiluminescence (ECL) detection solution. The intensity of bands was quantified using ImageJ 1.43 software (National Institutes of Health, Bethesda, MD, USA).
In general terms: In western blotting, separated proteins are transferred to a membrane and probed.

Broadly, the Papp is a coefficient for how fast a substance crosses the barrier. For orientation: IC50 means the point on the concentration scale where inhibition reaches its midpoint. `COc1cc(C(=O)CSCc2ccccc2Cl)ccc1O` [Compound D31, 2-((2-Chlorobenzyl)thio)-1-(4-Hydroxy-3-Methoxyphenyl)Ethan-1-One]: in the data set on ROS levels in U87 cells, the “Fluorescence intensity of DCF (ROS generation) vs control” value is on record as “significant increases”. Moreover, the “Body weight changes vs control group” value in the data set with C6 glioma is reported as “no obvious body weight changes”. In addition, the “Tumor volume vs control group” value in the data set with C6 glioma (MRI 13 days after treatment) was “significantly decreased”. The Papp at 90 min, 20 μM in data set [1] is 12 ± 0.94 ×10⁻⁶ cm/s. In addition, the 50% inhibitory concentration (IC50) in the data set on BMECs (48 h) is above 100 µM. In the data set with BMECs (96 h), this compound came in with an IC50 above 100 µM. In data set [2], the IκBα expression entry is on record as “obviously decreased”, the “nucleus p-NF-κB p65 expression” value is listed as “obviously increased” and the p-IKKα/β expression result is recorded as “obviously increased”.
